The values that follow come from paper PMC5988308, “Rhodanine derivatives as potent anti-HIV and anti-HSV microbicides” (PLoS ONE, 2018).

Read-outs that look alike come from different tables or passages of the source. Bounds are passed on as bounds.

Data set [1] can be described thus: Vero cell viability (MTS assay). The format is cell-based. The note with it: African green monkey. The procedure: African green monkey fibroblastoid kidney cells (Vero, ATCC CCL-81) were grown as monolayers in Eagle's minimal essential medium (MEM) (Gibco/BRL, Gaithersburg, MD) supplemented with 10% heat inactivated fetal calf serum (FCS) and 1% antibiotic-antimycotic solution (Zell Shield, Minerva Biolabs GmbH, Berlin, Germany).
Cell viability was measured using the MTS [3-(4,5-dimethylthiazol-2-yl)-5-(3-carboxymethoxyphenyl)-2-(4-sulfophenyl)-2H-tetrazolium] assay. Cell cultures were seeded in 96-well plates were incubated with different concentrations of compounds in triplicate under the same experimental conditions described for the antiviral assays. Cell viability was determined using the CellTiter 96 Proliferation Assay Kit (Promega, Madison, WI, USA) according to the manufacturer's instructions. Absorbances were measured using a Microplate Reader (Model 680, BIORAD) at 490 nm. The effect on cell viability at different concentrations of the compound was expressed as a percentage, by comparing absorbances of treated cells with those of cells incubated with culture medium and equal volumes of vehicle.
Background: Formazan colour is commonly taken as a measure of viable cells.

In data set [2] the test system is HSV-1. Nature of the data set: HSV-1 plaque reduction assay on Vero cells. It counts as cell-based. The note with it: Human alphaherpesvirus 1, Vero cells, read-out: HSV-1 EC50. As for the experimental part:
(§1) Clinical isolates of HSV-1 and HSV-2 were kindly provided by Prof. M. Pistello, University of Pisa, Italy. HSV-1 and HSV-2 strains were propagated and titrated by plaque assay on Vero cells. A HSV-2 strain with phenotypic resistance to acyclovir was generated by serial passage in the presence of increasing concentrations of acyclovir, as previously described.
(§2) The effect of the rhodanine derivatives on HSV infection was evaluated by plaque reduction assay. Vero cells were pre-plated 24 h in advance in 24-well plates at a density of […]. Increasing concentrations of compounds were mixed with HSV-2 (MOI 0.001 pfu/cell) or HSV-2 acyclovir resistant (MOI 0.001) or HSV-1 (MOI 0.0005) or and incubated for 1 hour at 37°C. The mixtures were subsequently added to the cells, which were then incubated at 37°C for 2 h. The virus inoculum was then removed and the cells washed and overlaid with a medium containing 1.2% methylcellulose (Sigma). After further incubation at 37°C for 24 h (HSV-2 and HSV-2 R Acy) or 48 h (HSV-1), cells were fixed and stained with 0.1% crystal violet in 20% ethanol and viral plaques counted. The effective concentration producing 50% reduction (EC50) and 90% reduction (EC90) in plaque formation was determined using Prism software by comparing drug-treated with wells treated with medium and solvent. The selectivity index (SI) was calculated by dividing the CC50 by the EC50 value.
(§3) All results are presented as the mean values from three independent experiments. The EC50 values for inhibition curves were calculated by regression analysis using the software GraphPad Prism (GraphPad Software, San Diego, California, U.S.A.) by fitting a variable slope-sigmoidal dose–response curve. Acyclovir was purchased from Sigma Aldrich (Milan, Italy).

For data set [3], the system named is HSV-2 acyclovir resistant. The data set can be described thus: HSV-2 acyclovir resistant plaque reduction assay on Vero cells. The format is cell-based. The note with it: Human alphaherpesvirus 2, Vero, read-out: HSV-2 acyclovir resistant EC50. The procedure:
as §1
as §2, with “The virus inoculum was then removed and the cells washed and overlaid with a medium containing 1.2% methylcellulose (Sigma).” left out, “The effective concentration producing 50% reduction (EC50) and 90% reduction (EC90) in plaque formation was determined using Prism software by comparing drug-treated with wells treated with medium and solvent.” left out
All results are presented as the mean values from three independent experiments. The EC50 values for inhibition curves were calculated by regression analysis using the software GraphPad Prism (GraphPad Software, San Diego, California, U.S.A.) by fitting a variable slope-sigmoidal dose–response curve. […]
For orientation: Plaques are areas of infected cells; plaque reduction assays count them against a control.

For data set [4], the system named is HSV-2. Nature of the data set: HSV-2 plaque reduction assay on Vero cells. The format is cell-based. The following applies: Vero cells. As for the experimental part:
as §1, §2, §3

Data set [5] relates to HSA. The note with it: cited from earlier work.
In data set [6] the test system is recombinant HIV-1 integrase Y143R. Nature of the data set: Antiviral activity on human CD4+ T lymphocytes, integrase mutant Y143R. The note with it: Human immunodeficiency virus 1, read-out: Y143R EC50. The format is cell-based.
For data set [7], the system named is HIV-1 NL4.3 (CXCR4-tropic strain). Nature of the data set: Antiviral activity on TZM-bl cells infected with HIV-1 NL4.3 (CPRG assay). It counts as cell-based. The procedure: After 48 h of incubation, the medium was removed and viral infection was quantified using a β-galactosidase (CPRG) assay (Roche). Twenty thousand TZM-bl cells/well were seeded in 96-well plates in complete DMEM supplemented with 30 μg/mL DEAE-dextran (Sigma-Aldrich). […] Vehicle (0.1% dimethyl sulfoxide [DMSO])-treated cells served as a negative control. […] After 2 days, viral infection was quantified using a CPRG assay (Roche). […] To evaluate the cell toxicity of the compounds, the metabolic XTT [2,3-bis-(2-methoxy-4-nitro-5-sulfophenyl)-2H-tetrazolium-5-carboxanilide] test (Sigma-Aldrich) was performed according to the manufacturer’s instructions.

Data set [8] deals with recombinant HIV-1 integrase Q148H, G140S. Nature of the data set: Antiviral activity on human CD4+ T lymphocytes, integrase mutant Q148H, G140S. It counts as cell-based. The note with it: Human immunodeficiency virus 1, read-out: Q148H, G140S EC50.
Data set [9] relates to HIV-1 AD8 (CCR5-tropic strain). Nature of the data set: Antiviral activity on TZM-bl cells infected with HIV-1 AD8 (CPRG assay). The note with it: for alteration of antiviral activity when pre-incubated with serum: HIV-1 laboratory strains. It counts as cell-based. The procedure: (§4) The human TZM-bl indicator cell line (obtained from the NIH AIDS reagents program, cat. Nr 8129 (www.aidsreagent.org) and maintained at 37°C and 5% CO2 in Dulbecco’s modified Eagle’s medium (DMEM) medium containing 10% fetal bovine serum, 50 μg/mL penicillin, and 50 μg/mL streptomycin. The HIV-1 laboratory strains NL(AD8) (NIH AIDS reagents program, cat.nr 11346), NL4.3 (NIH AIDS reagents program, cat. Nr. 114) were titrated as previously reported. Briefly, serial 5-fold dilutions of each virus were made in quadruplicate wells in 96-well culture plates, in a total volume of 100 μL of growth medium (DMEM), for a total of 8 dilution steps. Freshly trypsinized cells (20,000 cells in 100 μL of growth medium containing 75 μg/mL DEAE-dextran) were added to each well, and the plates were incubated at 37°C in a humidified 5% CO2-95% air environment. After 48 h of incubation, the medium was removed and viral infection was quantified using a β-galactosidase (CPRG) assay (Roche). Twenty thousand TZM-bl cells/well were seeded in 96-well plates in complete DMEM supplemented with 30 μg/mL DEAE-dextran (Sigma-Aldrich). Three hundred times the 50% tissue culture infective dose (TCID50)/mL of each strain was pretreated for 1 h at 37°C with six serial dilutions ([…] to 3.2 nM) of each compound and then added to the cells, as previously described. Vehicle (0.1% dimethyl sulfoxide [DMSO])-treated cells served as a negative control. […] After 2 days, viral infection was quantified using a CPRG assay (Roche). The inhibitory curves were fitted by nonlinear regression, allowing for the calculation of the 50% inhibitory concentration (IC50) using the Prism software. To evaluate the cell toxicity of the compounds, the metabolic XTT [2,3-bis-(2-methoxy-4-nitro-5-sulfophenyl)-2H-tetrazolium-5-carboxanilide] test (Sigma-Aldrich) was performed according to the manufacturer’s instructions.

The subject of data set [10] is HIV-1 AD8 WT. The data set can be described thus: Antiviral activity on human CD4+ T lymphocytes, AD8 WT. It counts as cell-based. The note with it: Human immunodeficiency virus 1, read-out: AD8 WT EC50. The procedure: (§5) The antiviral activity and cytotoxicity of compounds 2, 9e and 9f was tested also on freshly purified human CD4^+ T lymphocytes obtained from healthy blood donors (informed consent available) as described previously on HIV laboratory strain NL4.3 and AD8 [33, 34].

Data set [11] is described as follows: Cytotoxicity on TZM-bl cells (XTT test). The format is cell-based. The following applies: human, read-out: Citotoxicity (TZM-bl cells) CC50. As for the experimental part:
as §4

Data set [12] has as its system HIV-1 NL 4.3 WT. The data set can be described thus: Antiviral activity on human CD4+ T lymphocytes, NL4.3 WT. It counts as cell-based. The following applies: Human immunodeficiency virus 1, read-out: NL 4.3 WT EC50. As for the experimental part:
as §5

The subject of data set [13] is NL4.3 HIV strain. The data set can be described thus: Antiviral activity in microbicide gel formulation, transwell experiment, TZM-bl cells. The format is cell-based, HIV-1. The following applies: Human immunodeficiency virus 1, gel at 50%. As for the experimental part: All the semi-solid formulations were prepared adding at the pre-gel solution reported above hydroxyethyl cellulose (HEC) (1.8% w/v). In all samples, 0.2% v/v propionic acid was added to aqueous solution in order to preserve form bacteria and mold contamination. HEC was dispersed in the pre-gel solution at 25°C under magnetic stirring, overnight.
Antiviral activity of compound 2 on NL4.3 HIV strain was evaluated also in a gel formulation. To reproduce more physiological conditions, TZM-bl cells were seeded into transwells and the gel was applied onto the cell monolayer at 50% fixed concentration with serial drug dilutions as previously described. Briefly, 4x10^4 TZM-bl cells were plated into each transwell apical chamber of a 24-well plate (pore size 3μm and diameter 6,5 mm, Corning) containing medium in the bottom plate and cultured overnight. For efficacy testing, 60 TCID50 of virus was added to each apical well in the presence of 100 μL of compound 2 gel, tenofovir gel or blank gel at the final drug concentrations of 25μM, 10 μM and 5 μM. Inhibition of infection was determined as previously based on deviations from blank gel.

Data set [14] has as its system HIV-1 AD8. Nature of the data set: Inhibition of antiviral activity by fetal bovine serum (TZM-bl, AD8). It counts as cell-based. The following applies: FBS 0% to 10%. The procedure: To evaluate the binding of compounds to plasma proteins also in a cell based assay, the infection with the HIV laboratory strain AD8 was performed in absence or in presence of different concentrations of Fetal Bovine Serum (FBS): 2%, 5% and 10%. The representative compound 2 was pre-incubated at different concentrations ranging from 10 μM to 3.2 nM with 300 TCID50 /mL of AD8 in DMEM supplemented with 50 μg/mL penicillin, 50 μg/mL streptomycin, 30 μg/mL DEAE-dextran and FBS at the concentration described above. Maraviroc was used as control. After an hour the mixture was added to 40.000 TZM-bl cells/well plated in a 96-well plate and after two days the infection was quantified using a CPRG assay (Roche) as previously described.

Data set [15] concerns HIV-1 AD8. The data set can be described thus: Inhibition of antiviral activity by purified bovine serum albumin (TZM-bl, AD8). It counts as cell-based. As for the experimental part:
To confirm the binding of compound 2 to serum albumin, infection was performed in presence of different concentrations of purified bovine serum albumin (BSA, Sigma Aldrich) starting from the concentration that is usually present in FBS serum (35 mg/mL, 1X) and increasing to a five-fold concentration (175 mg/mL) up to a ten-fold concentration (350 mg/mL). […] After one hour, the mixture was added to 40.000 TZM-bl cells/well plated in DMEM supplemented with 50 μg/mL penicillin, 50 μg/mL streptomycin, 30 μg/mL DEAE-dextran and 10% FBS in a 96-well plate. After two days the infection was evaluated through a CPRG assay.

For the compound `Nc1nc2c(ncn2COCCO)c(=O)[nH]1` [ACV, Acyclovir, reference compound], the CC50 (in general, the concentration at which the toxic effect on the cells reaches its halfway point) in [1] (Citotoxicity (Vero cells) CC50) amounted to 732 ± 46.2 µM; in [1] (Vero cell CC50 (HSV-1)), 698 ± 72.5 µM; in data set [1] (Vero cell CC50 (HSV-2 acyclovir resistant rows)), 732 ± 46.2 µM. Moreover, the EC50 (as a rule, the concentration giving half of the maximal effect) amounted to 0.168 ± 0.0413 µM in data set [2]; 31.9 ± 1.16 µM in data set [3]; 0.622 ± 0.0211 µM in [4] (Human alphaherpesvirus 2, plaque reduction, compound pre-incubated with virus 1 h at 37°C, read-out: HSV-2 EC50). The “SI (CC50/EC50), HSV-2” value in data set [4] is on record as 1177.

For `CC(=O)Nc1ccc(O)cc1` [Paracetamol], in data set [5], the dissociation constant Kd (commonly the equilibrium constant for the complex coming apart) is 1280 ± 690 µM.

Consider `Cc1nnc(C(=O)NC(C)(C)c2nc(C(=O)NCc3ccc(F)cc3)c(O)c(=O)n2C)o1` [RAL, raltegravir, reference compound], for which the half-maximal effective concentration (EC50) in data set [6] was 0.46 ± 0.01 µM; in [7] (Human immunodeficiency virus 1, NL43, TZM-bl, read-out: NL4-3 EC50), 0.021 ± 0.003 µM; in data set [8], 0.8 ± 0.012 µM; in [9] (Human immunodeficiency virus 1, TZM-bl, read-out: AD8 EC50), 0.0065 ± 0.001 µM; in data set [9] (Human immunodeficiency virus 1, TZM-bl, read-out: AD8 EC50 a), 0.0135 ± 0.002 µM; in data set [10], 0.002 ± 0.003 µM. For the same compound, the EC50 in [12] was found to be 0.003 ± 0.002 µM. Besides, the “alteration of antiviral activity when pre-incubated with serum” value in data set [9] (TZM-bl cells) is “did not show any alteration of antiviral activity”. For the same compound, in data set [11], the CC50 was more than 20 µM.

As to `C[C@H](Cn1cnc2c(N)ncnc21)OCP(=O)(O)O` [tenofovir, reference compound], the EC50 in data set [13] is 4.5 µM.

As for maraviroc [reference compound], the EC50 is more than 20 µM in data set [7] (TZM-bl cells, pre-incubation in complete medium containing fetal bovine serum (FBS), read-out: NL4-3 EC50 a); more than 20 µM in [7] (TZM-bl cells, pre-incubation with virus without serum, read-out: NL4-3 EC50); 0.0255 ± 0.003 µM in [9] (TZM-bl cells, pre-incubation in complete medium containing fetal bovine serum (FBS), read-out: AD8 EC50 a); 0.0367 ± 0.007 µM in data set [9] (TZM-bl cells, pre-incubation with virus without serum, read-out: AD8 EC50). For the same compound, in data set [9] (TZM-bl cells), the “alteration of antiviral activity when pre-incubated with serum” value is recorded as “did not show any alteration of antiviral activity”. The “effect of FBS concentration on antiviral activity” value in [14] is recorded as “did not change”. For the same compound, in data set [15], the “influence of BSA on antiviral activity, any concentration of BSA” value is reported as “not influenced”.
